Laboratory results reported in patent US11028085B2, “Substituted isoindolin-1-ones and 2,3-dihydro-1h-pyrrolo[3,4-c]pyridin-1-ones as hpk1 antagonists” (Nimbus Saturn, Inc., priority 2019, dated 2021).

Molecular target: HPK1 (Homo sapiens (Human), UniProt Q92918)
Test: HPK1 biochemical enzyme assay (microfluidic mobility shift assay)
Conditions: 1.5 nM HPK1, ATP 1 mM final, 60 min at RT, Caliper EZ Reader; read-out: HPK1 1000UMATP caliper IC50
Procedure: HPK1 biochemical enzyme assay: HPK1 enzyme inhibition was measured using a microfluidic mobility shift assay. […] Test compounds were titrated in ten point curves (top final assay concentration […]), and preincubated with enzyme/substrate mix for 30 min prior to initiation of the reaction by addition of ATP (1 mM final concentration) and substrate (1 μM final concentration; Carna Biosciences) diluted in assay buffer supplemented by MgCl2 (final assay concentration of 5 mM). Following 60 min incubation at RT, the reaction was terminated by addition of 60 µl/well termination buffer (Carna Biosciences) and signal determination using a Caliper EZ Reader (Perkin Elmer, UK). […] The compound numbers correspond to the compound numbers in Table 1.

Chain of HPK1 (Q92918 whole entry): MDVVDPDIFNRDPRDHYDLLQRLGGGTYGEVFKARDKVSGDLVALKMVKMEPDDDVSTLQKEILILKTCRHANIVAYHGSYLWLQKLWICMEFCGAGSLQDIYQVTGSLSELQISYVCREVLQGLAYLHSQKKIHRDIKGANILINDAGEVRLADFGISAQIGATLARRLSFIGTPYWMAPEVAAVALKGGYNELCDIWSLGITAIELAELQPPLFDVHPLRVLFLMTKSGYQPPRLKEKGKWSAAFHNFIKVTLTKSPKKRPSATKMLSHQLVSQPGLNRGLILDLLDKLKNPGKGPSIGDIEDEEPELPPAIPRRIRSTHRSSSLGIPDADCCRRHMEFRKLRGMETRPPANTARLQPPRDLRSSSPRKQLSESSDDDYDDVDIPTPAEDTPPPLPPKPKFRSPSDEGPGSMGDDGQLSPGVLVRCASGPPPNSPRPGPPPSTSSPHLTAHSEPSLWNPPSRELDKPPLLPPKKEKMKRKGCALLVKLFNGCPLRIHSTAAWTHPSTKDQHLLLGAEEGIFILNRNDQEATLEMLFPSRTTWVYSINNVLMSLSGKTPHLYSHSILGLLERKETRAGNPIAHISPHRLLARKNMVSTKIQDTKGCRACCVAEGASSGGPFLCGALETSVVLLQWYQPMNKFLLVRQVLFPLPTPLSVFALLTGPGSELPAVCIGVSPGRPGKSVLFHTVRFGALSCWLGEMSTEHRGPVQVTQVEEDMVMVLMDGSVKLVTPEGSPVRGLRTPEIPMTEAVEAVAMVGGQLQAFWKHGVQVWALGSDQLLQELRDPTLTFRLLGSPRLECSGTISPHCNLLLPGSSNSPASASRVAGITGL

Molecule | IC50
O=C1NCc2c(-c3cnc4cc(F)ccn34)ccc(Nc3ccc(N4CCO[C@@H]5CNC[C@@H]54)cn3)c21 [I-690] | < 100 nM
(S)-7-((6- ((dimethylamino)- methyl)-5-(3-(2- hydroxypropan- 2-yl)piperidin-1- yl)pyridin-2- yl)amino)-4-(7- fluoroimidazo [1,2-a]pyridin- 3-yl)isoindolin- 1-one [I-746] | < 100 nM
